Measured values as given in ChEMBL document CHEMBL1151194, “Synthetic analogues of the microtubule-stabilizing agent (+)-discodermolide: preparation and biological activity” (J Nat Prod, 2004).

Assays:
P388 = assay: Cytotoxicity against mouse P388 cells; assay type: functional, cell-based
A549 = assay: Cytotoxicity against human A549 cells; assay type: functional, cell-based
[1] = Cytotoxicity against human NCI/ADR cells; assay type: functional, cell-based; conditions: NCI/ADR-RES
PANC-1 = assay: Cytotoxicity against human PANC1 cells; assay type: functional, cell-based
Vero = assay: Cytotoxicity against african green monkey Vero cells; assay type: cell-based; conditions: Chlorocebus sabaeus
MCF7 = assay: Cytotoxicity against human MCF7 cells; assay type: functional, cell-based

| SMILES | IC50 (P388) [nM] | IC50 (A549) [nM] | IC50 [1] [nM] | IC50 (PANC-1) [nM] | IC50 (Vero) [nM] | IC50 (MCF7) [nM] |
| --- | --- | --- | --- | --- | --- | --- |
| C=C/C=C\[C@H](C)[C@H](OC(N)=O)[C@@H](C)[C@H](O)[C@@H](C)CC(=C)[C@H]1[C@H](C)[C@@H](O)[C@@H](C)[C@@H]1/C=C/C[C@@H]1OC(=O)[C@H](C)[C@@H](O)[C@H]1C | 190 | 100 | 3400 | 330 | 690 | 130 |
| C=C/C=C\[C@H](C)[C@H](OC(N)=O)[C@@H](C)[C@H](O)[C@H](C)C[C@](C)(O)[C@H]1[C@H](C)[C@@H](O)[C@@H](C)[C@@H]1/C=C/C[C@@H]1OC(=O)[C@H](C)[C@@H](O)[C@H]1C (relative stereo) | 7650 | > 5000 | > 5000 | > 5000 | 11400 | 7350 |
| C=C/C=C\[C@H](C)[C@H](OC(N)=O)[C@@H](C)[C@H](O)[C@@H](C)C/C(C)=C\[C@H](C)[C@H]1O[C@H](C[C@@H]2OC(=O)[C@H](C)[C@@H](O)[C@H]2C)C=C[C@@H]1C | 1000 | 1460 | 4400 | 3130 | 3650 | 1800 |
| C=C/C=C\[C@H](C)[C@H](OC(N)=O)[C@@H](C)[C@H](O)[C@@H](C)C/C(C)=C\[C@H](C)[C@@H](O)[C@@H](C)/C=C\[C@@H](O)C[C@@H]1OC(=O)[C@H](C)[C@@H](O)[C@H]1C [DISERMOLIDE] | 33 | 15 | 17 | 49 | 30000 | 2.4 |
| C=C/C=C\[C@H](C)[C@H](OC(N)=O)[C@@H](C)[C@H](O)[C@@H](C)C[C@](C)(O)[C@H]1[C@H](C)[C@@H](O)[C@@H](C)[C@@H]1/C=C/C[C@@H]1OC(=O)[C@H](C)[C@@H](O)[C@H]1C (relative stereo) | 2090 | 2640 | > 5000 | > 5000 | 16600 | 1730 |
| C=C/C=C\[C@H](C)[C@H](OC(N)=O)[C@@H](C)[C@H](O)[C@@H](C)/C=C(\C)[C@H]1[C@H](C)[C@@H](O)[C@@H](C)[C@@H]1/C=C/C[C@@H]1OC(=O)[C@H](C)[C@@H](O)[C@H]1C | 2130 | 6640 | > 5000 | 6570 | 21900 | 2100 |
| C=C/C=C\[C@H](C)[C@H](OC(N)=O)[C@@H](C)[C@H](O)[C@@H](C)C[C@@](C)(O)[C@H]1[C@H](C)[C@@H](O)[C@@H](C)[C@@H]1/C=C/C[C@@H]1OC(=O)[C@H](C)[C@@H](O)[C@H]1C (mixture of isomers) | 2420 | 840 | > 5000 | 3030 | 4300 | 2360 |
| C=C/C=C\[C@H](C)[C@H](OC(N)=O)[C@@H](C)[C@H](O)[C@@H](C)C/C(C)=C\[C@H](C)[C@@H](O)[C@@H](C)/C=C\[C@@H](O)C[C@@H]1OC(=O)[C@H](C)[C@@H](O[Si](C)(C)C(C)(C)C)[C@H]1C | 790 | 1990 | 2800 | 2650 | 420 | 960 |
